Measurements published in ChEMBL document CHEMBL1201862, “PubChem BioAssay data set” (2004).
Where a name gives a salt, the structure may show the parent alone. Calls of active or inactive are those of the source.

Assays:
[1] = molecular target: T1, Long-chain-fatty-acid--AMP ligase FadD28 (Mycobacterium tuberculosis, UniProt P9WQ59); assay: Fluorescence polarization aasay to screen for inhibitors that compete for the binding of FadD28 to a bisubstrate Measured in Biochemical System Using Plate Reader - 2147-01_Inhibitor_Dose_CherryPick_Activity.; type: functional, Mycobacterium tuberculosis H37Rv
T1 sequence (P9WQ59 whole entry): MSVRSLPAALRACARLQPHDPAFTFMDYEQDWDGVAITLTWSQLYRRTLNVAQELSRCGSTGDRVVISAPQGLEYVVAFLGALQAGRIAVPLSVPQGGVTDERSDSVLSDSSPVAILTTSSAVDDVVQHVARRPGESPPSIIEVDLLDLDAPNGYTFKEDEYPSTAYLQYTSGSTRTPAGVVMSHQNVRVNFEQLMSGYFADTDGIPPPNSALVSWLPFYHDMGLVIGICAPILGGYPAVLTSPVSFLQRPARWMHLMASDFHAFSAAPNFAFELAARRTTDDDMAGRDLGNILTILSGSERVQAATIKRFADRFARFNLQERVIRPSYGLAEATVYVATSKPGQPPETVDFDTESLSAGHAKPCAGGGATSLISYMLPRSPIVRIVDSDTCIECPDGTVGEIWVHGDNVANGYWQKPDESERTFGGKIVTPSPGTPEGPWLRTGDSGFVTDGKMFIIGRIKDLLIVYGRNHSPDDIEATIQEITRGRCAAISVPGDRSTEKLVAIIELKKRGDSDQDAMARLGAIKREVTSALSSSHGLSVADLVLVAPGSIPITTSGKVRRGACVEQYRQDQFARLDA

[2] = luciferase reporter signal suppression in cells – H4 neuroglioma cells, luminescence, dose response (AID 1990); type: functional, cell-based
[3] = DRD fibroblast viability loss – cell-based, non-viral oncogenic, luminescence, dose response (AID 1934); type: functional; details: Homo sapiens
[4] = system: BJ; assay: cells; type: functional, cell-based; details: Homo sapiens
[5] = system: INS1; assay: INS-1E survival protection against cytokine death – cell-based, luminescence, retest, dose response (AID 449756); type: functional; details: Rattus norvegicus;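 further: cell death triggered by IL-1 beta plus TNF-alpha plus IFN-gamma mixture; protective hits raise ATP signal compared with cytokine alone wells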
[6] = cells; type: functional, cell-based
[7] = NIH-3T3 fibroblast cytotoxicity, dose response, cytotoxicity control, cell-based, fluorescence, Alamar Blue, secondary assay (AID 2327); type: functional;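 further: NIH-3T3 mouse fibroblasts cultured with fluconazole at 8 µg/mL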
[8] = Luminescence Cell-Based Dose Response HTS to Identify Inhibitors of 5'UTR Stem-Loop Driven Prion Protein mRNA Translation in H4 Neuroglioblastoma Cells. [Related pubchem assays: 1827 (Project Summary), 1813 (Primary HTS)]; type: functional
[9] = system: BJ; assay: growth inhibition of engineered Ras-driven BJ cells – cell-based, alamar blue fluorescence, cherrypicked samples, dose response (AID 2631); type: functional; details: Homo sapiens;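 further: confirmatory dose-response assay in RAS-dependent BJ fibroblasts engineered with TERT, LT and ST, with cytotoxicity read by fluorescence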
[10] = cells; type: functional, cell-based; remark: listed apart in the source
[11] = alpha-synuclein stem-loop luciferase translation blockers – H4 neuroglioma cells, luminescence, confirmation (AID 1988); type: functional, cell-based
[12] = system: BJ; assay: BJ-TERT-LT-ST fibroblast viability loss – cell-based, RAS-independent, luminescence, dose response (AID 1935); type: functional; details: Homo sapiens;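 further: BJ fibroblasts immortalized with TERT plus LT and ST oncogenes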
[13] = system: HEK293; assay: EBV LMP1 TES2 canonical NF-kB signalling blockers – cell-based, HEK293, luciferase, cherry-pick, dose response (AID 588343); type: functional; details: Homo sapiens
[14] = system: BJ; assay: BJ-TERT fibroblast viability loss – cell-based, RAS-independent, luminescence, dose response (AID 1933); type: functional; details: Homo sapiens
[15] = system: HEK293; assay: SAR Analysis of small molecule inhibitors of B-cell specific antigen receptor-induced NF-kB activation in a HEK-293T cell line using a luminescence assay - Set 2. [Related pubchem assays (depositor defined):AID435022, AID435025, AID489021]; type: functional, cell-based; details: Homo sapiens
[16] = system: HEK293; assay: HEK293T cell viability loss, resazurin readout – resazurin fluorescence, cytotoxicity control for NF-kB activator project, SAR follow-up (AID 493251); type: functional, cell-based; details: Homo sapiens
[17] = system: Jurkat; assay: SAR Analysis of small molecule inhibitors of […] specific antigen receptor-induced NF-kB activation in a Jurkat cell line using a luminescence assay - Set 3. [Related pubchem assays (depositor defined):AID435022, AID435025, AID465]; type: functional, cell-based; details: Homo sapiens
[18] = molecular target: T2, Tyrosine-protein phosphatase non-receptor type 22 (Homo sapiens, UniProt Q9Y2R2); type: functional
T2 sequence (Q9Y2R2 whole entry): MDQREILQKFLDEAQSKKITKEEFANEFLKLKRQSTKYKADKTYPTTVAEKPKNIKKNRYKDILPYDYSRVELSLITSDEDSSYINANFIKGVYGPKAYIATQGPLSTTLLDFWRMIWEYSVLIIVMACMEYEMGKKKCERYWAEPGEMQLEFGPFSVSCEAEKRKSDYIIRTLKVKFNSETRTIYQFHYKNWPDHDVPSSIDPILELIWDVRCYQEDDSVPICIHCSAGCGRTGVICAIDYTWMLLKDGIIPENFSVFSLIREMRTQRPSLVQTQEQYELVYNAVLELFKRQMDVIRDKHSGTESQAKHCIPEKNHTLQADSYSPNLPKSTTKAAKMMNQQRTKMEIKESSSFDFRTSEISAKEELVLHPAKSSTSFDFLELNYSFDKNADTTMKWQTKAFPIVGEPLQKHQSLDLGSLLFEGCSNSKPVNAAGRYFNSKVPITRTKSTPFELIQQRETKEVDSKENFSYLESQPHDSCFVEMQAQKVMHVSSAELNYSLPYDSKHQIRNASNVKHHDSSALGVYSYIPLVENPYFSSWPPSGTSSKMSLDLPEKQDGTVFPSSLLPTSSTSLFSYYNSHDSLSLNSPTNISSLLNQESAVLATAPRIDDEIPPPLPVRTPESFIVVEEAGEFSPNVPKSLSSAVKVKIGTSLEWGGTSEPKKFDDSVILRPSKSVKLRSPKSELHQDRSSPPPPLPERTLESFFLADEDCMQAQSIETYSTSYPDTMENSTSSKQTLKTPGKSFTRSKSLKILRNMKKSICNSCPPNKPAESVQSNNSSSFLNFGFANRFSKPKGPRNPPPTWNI

[19] = molecular target: T2, Tyrosine-protein phosphatase non-receptor type 22; type: functional; remark: listed apart in the source
[20] = molecular target: T3, Tyrosine-protein phosphatase non-receptor type 7 (Homo sapiens, UniProt P35236); type: functional
T3 sequence (P35236 whole entry): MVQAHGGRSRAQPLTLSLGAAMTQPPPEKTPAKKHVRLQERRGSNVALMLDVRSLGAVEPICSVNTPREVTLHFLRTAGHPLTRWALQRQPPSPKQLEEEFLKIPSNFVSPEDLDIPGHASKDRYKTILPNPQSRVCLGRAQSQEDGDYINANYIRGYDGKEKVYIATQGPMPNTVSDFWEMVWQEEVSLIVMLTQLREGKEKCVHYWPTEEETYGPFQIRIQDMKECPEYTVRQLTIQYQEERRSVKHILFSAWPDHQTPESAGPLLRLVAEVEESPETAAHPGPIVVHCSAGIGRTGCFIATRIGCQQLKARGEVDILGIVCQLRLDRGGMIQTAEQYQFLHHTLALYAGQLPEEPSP

[21] = MIN6 cell viability loss – mouse insulinoma, cytotoxicity control, dose response (AID 2122); type: functional;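 further: confirmatory high-throughput counterscreen run to flag cytotoxic compounds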
[22] = decrease of insulin promoter-GFP reporter – imaging, high-content screening, mouse beta cells (AID 1628); type: functional; details: MIN6
[23] = molecular target: Voltage-gated inwardly rectifying potassium channel KCNH2 (Homo sapiens, UniProt Q12809); details: Potency;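 further: confirmatory quantitative high-throughput screen measuring inhibition of hERG channel activity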
Sequence of Voltage-gated inwardly rectifying potassium channel KCNH2 (Q12809 whole entry): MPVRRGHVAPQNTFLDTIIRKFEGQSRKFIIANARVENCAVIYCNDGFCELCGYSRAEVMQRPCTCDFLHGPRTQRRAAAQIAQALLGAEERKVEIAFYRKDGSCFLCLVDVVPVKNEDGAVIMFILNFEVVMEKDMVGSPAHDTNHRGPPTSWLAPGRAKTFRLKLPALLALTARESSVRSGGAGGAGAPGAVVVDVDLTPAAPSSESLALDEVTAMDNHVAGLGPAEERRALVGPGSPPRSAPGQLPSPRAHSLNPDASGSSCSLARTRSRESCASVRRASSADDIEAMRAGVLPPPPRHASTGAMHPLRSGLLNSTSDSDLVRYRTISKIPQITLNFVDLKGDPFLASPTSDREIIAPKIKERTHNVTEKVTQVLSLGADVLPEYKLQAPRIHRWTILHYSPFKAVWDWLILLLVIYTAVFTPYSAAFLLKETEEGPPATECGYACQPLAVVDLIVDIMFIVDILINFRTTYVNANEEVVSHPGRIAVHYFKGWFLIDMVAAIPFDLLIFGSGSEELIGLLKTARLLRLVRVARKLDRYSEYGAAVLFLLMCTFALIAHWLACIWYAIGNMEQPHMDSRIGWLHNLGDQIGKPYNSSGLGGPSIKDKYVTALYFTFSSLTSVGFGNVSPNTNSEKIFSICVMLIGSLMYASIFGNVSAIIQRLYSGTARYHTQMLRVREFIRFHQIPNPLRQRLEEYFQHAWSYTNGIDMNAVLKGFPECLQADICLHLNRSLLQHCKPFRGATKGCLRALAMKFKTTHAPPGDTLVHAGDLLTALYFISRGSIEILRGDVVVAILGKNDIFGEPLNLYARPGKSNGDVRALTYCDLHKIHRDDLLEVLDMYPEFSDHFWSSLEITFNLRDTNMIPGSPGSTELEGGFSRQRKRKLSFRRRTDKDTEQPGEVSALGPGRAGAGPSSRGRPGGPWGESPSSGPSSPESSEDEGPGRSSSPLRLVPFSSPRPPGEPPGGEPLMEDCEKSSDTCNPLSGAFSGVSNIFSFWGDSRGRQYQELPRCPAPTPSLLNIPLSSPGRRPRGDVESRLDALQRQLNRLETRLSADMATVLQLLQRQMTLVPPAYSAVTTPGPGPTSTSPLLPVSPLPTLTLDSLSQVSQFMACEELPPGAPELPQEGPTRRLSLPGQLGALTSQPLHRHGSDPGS

[24] = molecular target: T4, Heat shock factor protein 1 (Mus musculus, UniProt P38532); assay: enhancement of HSF1-driven luciferase signal – cell-based, NIH3T3, luminescence, dose retest, confirmation (AID 435004); type: functional;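 further: stress induced by proteasome inhibitor MG132 added 30 min after compound; luciferase reporter driven by HSF1 response element in NIH3T3 cells; actives raise luminescence as potentiators of the MG132 stress response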
T4 sequence (P38532 whole entry): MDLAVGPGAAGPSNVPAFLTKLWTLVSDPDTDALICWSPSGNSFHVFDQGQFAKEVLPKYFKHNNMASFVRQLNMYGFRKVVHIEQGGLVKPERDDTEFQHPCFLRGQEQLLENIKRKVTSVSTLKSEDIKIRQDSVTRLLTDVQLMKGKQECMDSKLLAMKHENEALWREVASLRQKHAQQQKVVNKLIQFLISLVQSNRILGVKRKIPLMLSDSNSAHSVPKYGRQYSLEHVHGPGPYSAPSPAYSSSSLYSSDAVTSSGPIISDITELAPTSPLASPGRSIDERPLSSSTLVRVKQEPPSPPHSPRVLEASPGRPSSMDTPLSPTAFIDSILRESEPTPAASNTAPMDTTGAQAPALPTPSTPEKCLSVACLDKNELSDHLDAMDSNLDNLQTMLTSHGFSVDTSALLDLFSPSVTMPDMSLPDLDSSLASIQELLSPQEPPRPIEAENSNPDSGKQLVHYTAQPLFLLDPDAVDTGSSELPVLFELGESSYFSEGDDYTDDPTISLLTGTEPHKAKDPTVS

Question: Which results are given for `CCN(CC)c1ccc(/C=N/NC(=O)c2ccc3[nH]cnc3c2)c(O)c1`?
Answer: AC50 [1]: 13.1 µM (active); EC50 [2]: 3.35 µM (active); EC50 [3]: 4.54 µM (active); EC50 [4]: 7.44 µM (inconclusive); AC50 [5]: 0.827 µM (active); EC50 [6]: 8.39 µM (active); EC50 [7]: 6.84 µM (active); EC50 [8]: 4.29 µM (active); EC50 [9]: 0.944 µM (active); EC50 [10]: > 350 µM (not active); EC50 [11]: 7.51 µM (active); EC50 [12]: 9.27 µM (active); AC50 [13]: 7.07 µM (active); EC50 [14]: 4.19 µM (active)

Question: With `CCCNC(=O)CCc1nc(-c2ccc(C(C)(C)C)cc2)no1` as the compound, how does the IC50 [15] read?
Answer: Its IC50 is 9.19 µM (active).

Question: What about the IC50 [16] of the same compound?
Answer: The IC50 was > 80 µM (inactive).

Question: And the IC50 [17]?
Answer: The IC50 was > 80 µM (inactive).

Question: For `CCOc1ccc(-c2nc(CSCC(=O)NCc3cccs3)c(C)o2)cc1`, which IC50 [15] is on record?
Answer: Its IC50 is 24.3 µM (inactive).

Question: What about the IC50 [16] of the same compound?
Answer: Its IC50 is 34.8 µM (inactive).

Question: What about the IC50 [17] of the same compound?
Answer: The IC50 was > 80 µM (inactive).

Question: For `O=C(c1cc2cc(F)ccc2[nH]1)N1CCN(C(=O)c2ccco2)CC1`, which IC50 [18] is on record?
Answer: The IC50 was > 79.4 µM (inactive).

Question: And the IC50 [19]?
Answer: The IC50 was > 79.4 µM (inactive).

Question: And the IC50 [20]?
Answer: Its IC50 is > 79.4 µM (inactive).

Question: What does the source list for `CC(Oc1ccc(Cl)cc1Cl)c1nc(-c2ccc(NC(=O)c3cccnc3)cc2)no1` (stereo unspecified)?
Answer: EC50 [3]: 25.4 µM (active); EC50 [4]: 3.32 µM (active); AC50 [5]: 0.61 µM (active); IC50 [21]: 0.928 µM (active); EC50 [9]: > 66.7 µM (inactive); IC50 [22]: 0.88 µM (active); EC50 [12]: > 150 µM (not active); EC50 [14]: > 150 µM (not active)

Question: What does the source list for `Cn1c(N2CCOCC2)c(/C=N/OC(=O)c2cccnc2Cl)c2ccccc21`?
Answer: IC50 [21]: 1.4 µM (active); IC50 [22]: 3.37 µM (active)

Question: Which AC50 [23] does the source give for `COc1cccc(OC)c1OCCNCC1COc2ccccc2O1` (stereo unspecified) [2- (2,6-DIMETHOXYPHENOXYETHYL)AMINOMETHYL-1,4-BENZODIOXANE HYDROCHLORIDE (WB 4101)] here?
Answer: The AC50 was 11.2 µM (inconclusive).

Question: What about the EC50 [24] of the same compound?
Answer: The EC50 was > 260 µM (inactive).

Question: Which AC50 [23] does the source give for `CC(C)COC(=O)c1ccccc1C(=O)OCC(C)C` here?
Answer: Its AC50 is 35.5 µM (inconclusive).
